Source: US9169254B2, “Spiroimidazolone derivative” (Chugai Seiyaku Kabushiki Kaisha, priority 2009, dated 2015)

Target: T1, human PTH1 receptor (Homo sapiens, UniProt Q03431)
T1 sequence (Q03431 27-593): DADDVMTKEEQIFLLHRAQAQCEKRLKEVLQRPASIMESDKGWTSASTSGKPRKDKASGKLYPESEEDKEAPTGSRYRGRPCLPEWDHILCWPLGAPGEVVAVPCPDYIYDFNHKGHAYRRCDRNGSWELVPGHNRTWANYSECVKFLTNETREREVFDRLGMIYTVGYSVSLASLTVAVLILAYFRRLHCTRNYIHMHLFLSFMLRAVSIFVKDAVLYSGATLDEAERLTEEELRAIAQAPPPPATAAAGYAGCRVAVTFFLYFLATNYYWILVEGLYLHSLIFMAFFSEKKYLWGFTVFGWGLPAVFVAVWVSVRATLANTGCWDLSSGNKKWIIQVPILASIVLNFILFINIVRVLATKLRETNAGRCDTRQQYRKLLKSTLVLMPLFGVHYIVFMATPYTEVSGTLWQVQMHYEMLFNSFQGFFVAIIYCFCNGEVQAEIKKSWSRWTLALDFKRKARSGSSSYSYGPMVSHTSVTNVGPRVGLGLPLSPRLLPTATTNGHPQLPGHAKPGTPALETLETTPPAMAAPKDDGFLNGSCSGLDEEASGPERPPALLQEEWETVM
Experiment: In vitro cAMP signal activity in HKRK-B7 cells (LLC-PK1 cells overexpressing the human PTH1 receptor)
Type: cell-based
Conditions: HKRK-B7 cells; compound at 1×10^−3 M; cAMP produced as percentage of that produced by hPTH(1-34) at 100 nM

Going from `CC(=O)Nc1ccc(CCS(=O)(=O)N2CCC3(CC2)N=C(C2CCC(=CCCF)CC2)NC3=O)c(C)c1` (stereo not drawn) [Compound 1066, N-[4-(2-{2-[4-(3-Fluoro-propylidene)-cyclohexyl]-4-oxo-1,3,8-triaza-spiro[4.5]dec-1-ene-8-sulfonyl}-ethyl)-3-methyl-phenyl]-acetamide] to `CCCC=C1CCC(C2=NC3(CCN(S(=O)(=O)CCc4ccc(NC(C)=O)cc4C)CC3)C(=O)N2)CC1` (stereo not drawn) [Compound 1079, N-(4-{2-[2-(4-Butylidene-cyclohexyl)-4-oxo-1,3,8-triaza-spiro[4.5]dec-1-ene-8-sulfonyl]-ethyl}-3-methyl-phenyl)-acetamide], the “cAMP production activity (%)” value rises from 83% to 91%.

Going from `CC(=O)Nc1ccc(CCS(=O)(=O)N2CCC3(CC2)N=C([C@H]2CC[C@H](CC=C(F)F)CC2)NC3=O)c(C)c1` [Compound 1067, N-[4-(2-{2-[4-(3,3-difluoro-allyl)-cyclohexyl]-4-oxo-1,3,8-triaza-spiro[4.5]dec-1-ene-8-sulfonyl}-ethyl)-3-methyl-phenyl]-acetamide] to `CC(=O)Nc1ccc(CCS(=O)(=O)N2CCC3(CC2)N=C([C@H]2CC[C@@H](CC=C(F)F)CC2)NC3=O)c(C)c1` [Compound 1068, N-[4-(2-{2-[4-(3,3-difluoro-allyl)-cyclohexyl]-4-oxo-1,3,8-triaza-spiro[4.5]dec-1-ene-8-sulfonyl}-ethyl)-3-methyl-phenyl]-acetamide], the “cAMP production activity (%)” value falls from 69% to 68%.

First: CC(=O)Nc1ccc(CCS(=O)(=O)N2CCC3(CC2)N=C([C@H]2CC[C@@H](CC(F)(F)C(F)(F)F)CC2)NC3=O)c(C)c1 [Compound 1069, N-[3-methyl-4-(2-{4-oxo-2-[4-(2,2,3,3,3-pentafluoro-propyl)-cyclohexyl]-1,3,8-triaza-spiro[4.5]dec-1-ene-8-sulfonyl}-ethyl)-phenyl]-acetamide]
Second: CC(=O)Nc1ccc(CCS(=O)(=O)N2CCC3(CC2)N=C(C2CCC(CC(F)(F)C(F)(F)F)CC2)NC3=O)c(C)c1 (stereo not drawn) [Compound 1080, N-[3-Methyl-4-(2-{4-oxo-2-[4-(2,2,3,3,3-pentafluoro-propyl)-cyclohexyl]-1,3,8-triaza-spiro[4.5]dec-1-ene-8-sulfonyl}-ethyl)-phenyl]-acetamide]
The “cAMP production activity (%)” value of the first is lower: 79% for the first, 81% for the second.

Compared with `CC(=O)Nc1ccc(CCS(=O)(=O)N2CCC3(CC2)N=C([C@H]2CC[C@@H](C/C=C/F)CC2)NC3=O)c(C)c1` [Compound 1070, N-[4-(2-{2-[4-((E)-3-fluoro-allyl)-cyclohexyl]-4-oxo-1,3,8-triaza-spiro[4.5]dec-1-ene-8-sulfonyl}-ethyl)-3-methyl-phenyl]-acetamide], `CC(=O)Nc1ccc(CCS(=O)(=O)N2CCC3(CC2)N=C([C@H]2CC[C@@H](CC(F)F)CC2)NC3=O)c(C)c1` [Compound 1071, N-[4-(2-{2-[4-(2,2-difluoro-ethyl)-cyclohexyl]-4-oxo-1,3,8-triaza-spiro[4.5]dec-1-ene-8-sulfonyl}-ethyl)-3-methyl-phenyl]-acetamide] is lower in “cAMP production activity (%)” value: 69% for the first, 60% for the second.

Going from `CC(=O)Nc1ccc(CCS(=O)(=O)N2CCC3(CC2)N=C([C@H]2CC[C@@H](CCF)CC2)NC3=O)c(C)c1` [Compound 1072, N-[4-(2-{2-[4-(2-fluoro-ethyl)-cyclohexyl]-4-oxo-1,3,8-triaza-spiro[4.5]dec-1-ene-8-sulfonyl}-ethyl)-3-methyl-phenyl]-acetamide] to `CC(=O)Nc1ccc(CCS(=O)(=O)N2CCC3(CC2)N=C(C2CCC(CC(C)F)CC2)NC3=O)c(C)c1` (stereo not drawn) [Compound 1077, N-[4-(2-{2-[4-(2-fluoro-propyl)-cyclohexyl]-4-oxo-1,3,8-triaza-spiro[4.5]dec-1-ene-8-sulfonyl}-ethyl)-3-methyl-phenyl]-acetamide], the “cAMP production activity (%)” value rises from 54% to 74%.

Compared with `CC(=O)Nc1ccc(CCS(=O)(=O)N2CCC3(CC2)N=C(C2CCC(F)(CCCF)CC2)NC3=O)c(C)c1` (stereo not drawn) [Compound 1073, N-[4-(2-{2-[4-fluoro-4-(3-fluoro-propyl)-cyclohexyl]-4-oxo-1,3,8-triaza-spiro[4.5]dec-1-ene-8-sulfonyl}-ethyl)-3-methyl-phenyl]-acetamide], `CC(=O)Nc1ccc(CCS(=O)(=O)N2CCC3(CC2)N=C(C2CCC(=CCC(F)F)CC2)NC3=O)c(C)c1` (stereo not drawn) [Compound 1076, N-[4-(2-{2-[4-(3,3-difluoro-propylidene)-cyclohexyl]-4-oxo-1,3,8-triaza-spiro[4.5]dec-1-ene-8-sulfonyl}-ethyl)-3-methyl-phenyl]-acetamide] is higher in “cAMP production activity (%)” value: 66% for the first, 88% for the second.

Going from `CC(=O)Nc1ccc(CCS(=O)(=O)N2CCC3(CC2)N=C(C2CCC(C(F)F)CC2)NC3=O)c(C)c1` (stereo not drawn) [Compound 1075, N-(4-{2-[2-(4-difluoromethyl-cyclohexyl)-4-oxo-1,3,8-triaza-spiro[4.5]dec-1-ene-8-sulfonyl]-ethyl}-3-methyl-phenyl)-acetamide] to `CC(=O)Nc1ccc(CCS(=O)(=O)N2CCC3(CC2)N=C(C2CCC(C(C)(C)F)CC2)NC3=O)c(C)c1` (stereo not drawn) [Compound 1078, N-[4-(2-{2-[4-(1-Fluoro-1-methyl-ethyl)-cyclohexyl]-4-oxo-1,3,8-triaza-spiro[4.5]dec-1-ene-8-sulfonyl}-ethyl)-3-methyl-phenyl]-acetamide], the “cAMP production activity (%)” value rises from 69% to 74%.

Compared with `CCCCC#CCCCC1=NC2(CCN(S(=O)(=O)CCc3c(C)cc(N(C)C(N)=O)cc3C)CC2)C(=O)N1` [Compound 1081, 1-{3,5-Dimethyl-4-[2-(2-non-4-ynyl-4-oxo-1,3,8-triaza-spiro[4.5]dec-1-ene-8-sulfonyl)-ethyl]-phenyl}-1-methyl-urea], `CCCCCC#CCCC1=NC2(CCN([S@TB17](=O)(=O)CCc3c(C)cc(N(C)C(N)=O)cc3C)CC2)C(=O)N1` [Compound 1082, 1-{3,5-dimethyl-4-[2-(2-non-3-ynyl-4-oxo-1,3,8-triaza-spiro[4.5]dec-1-ene-8-sulfonyl)-ethyl]-phenyl}-1-methyl-urea] is lower in “cAMP production activity (%)” value: 53% for the first, 22% for the second.

First: CCCCCCCC#CC1=NC2(CCN([S@TB17](=O)(=O)CCc3c(C)cc(N(C)C(N)=O)cc3C)CC2)C(=O)N1 [Compound 1083, 1-{3,5-dimethyl-4-[2-(2-non-1-ynyl-4-oxo-1,3,8-triaza-spiro[4.5]dec-1-ene-8-sulfonyl)-ethyl]-phenyl}-1-methyl-urea]
Second: CCCCCCCCCC1=NC2(CCN(S(=O)(=O)C(F)(F)Cc3c(C)cc(N(C)C(N)=O)cc3C)CC2)C(=O)N1 [Compound 1086, 1-{4-[2,2-Difluoro-2-(2-nonyl-4-oxo-1,3,8-triaza-spiro[4.5]dec-1-ene-8-sulfonyl)-ethyl]-3,5-dimethyl-phenyl}-1-methyl-urea]
The “cAMP production activity (%)” value of the first is lower: 113% for the first, 151% for the second.

First: Cc1cc(N(C)C(N)=O)cc(C)c1CC1(S(=O)(=O)N2CCC3(CC2)N=C(c2cccc(OC(F)(F)F)c2)NC3=O)CC1 [Compound 1084, 1-(3,5-Dimethyl-4-{1-[4-oxo-2-(3-trifluoromethoxy-phenyl)-1,3,8-triaza-spiro[4.5]dec-1-ene-8-sulfonyl]-cyclopropylmethyl}-phenyl)-1-methyl-urea]
Second: Cc1cc(N(C)C(N)=O)cc(C)c1CC(F)(F)S(=O)(=O)N1CCC2(CC1)N=C(c1cccc(OC(F)(F)F)c1)NC2=O [Compound 1085, 1-(4-{2,2-Difluoro-2-[4-oxo-2-(3-trifluoromethoxy-phenyl)-1,3,8-triaza-spiro[4.5]dec-1-ene-8-sulfonyl]-ethyl}-3,5-dimethyl-phenyl)-1-methyl-urea]
The “cAMP production activity (%)” value of the first is lower: 13% for the first, 100% for the second.

First: Cc1cc(N(C)C(N)=O)cc(C)c1CCS(=O)(=O)N1CCC2(CC1)N=C(c1cccc(-c3ccccc3-c3ccccc3)c1)NC2=O [Compound 1087, 1-{3,5-Dimethyl-4-[2-(4-oxo-2-[1,1′;2′,1″]terphenyl-3-yl-1,3,8-triaza-spiro[4.5]dec-1-ene-8-sulfonyl)-ethyl]-phenyl}-1-methyl-urea]
Second: Cc1cc(N(C)C(N)=O)cc(C)c1/C=C/[S@TB4](=O)(=O)N1CCC2(CC1)N=C(c1cccc(CCCC(F)(F)F)c1)NC2=O [Compound 1089, 1-[3,5-dimethyl-4-((E)-2-{4-oxo-2-[3-(4,4,4-trifluoro-butyl)-phenyl]-1,3,8-triaza-spiro[4.5]dec-1-ene-8-sulfonyl}-vinyl)-phenyl]-1-methyl-urea]
The “cAMP production activity (%)” value of the first is lower: 97% for the first, 99% for the second.

In the case of `Cc1cc(N(C)C(N)=O)cc(C)c1/C=C/S(=O)(=O)N1CCC2(CC1)N=C(c1ccc(CCCC(F)(F)F)cc1)NC2=O` [Compound 1088, 1-[3,5-Dimethyl-4-((E)-2-{4-oxo-2-[4-(4,4,4-trifluoro-butyl)-phenyl]-1,3,8-triaza-spiro[4.5]dec-1-ene-8-sulfonyl}-vinyl)-phenyl]-1-methyl-urea], the “cAMP production activity (%)” value is reported as 95%.

Same assay, conditions: HKRK-B7 cells; compound at 1×10^−3 M; cAMP produced as percentage of that produced by hPTH(1-34) at 100 nM; 0.1 µM

`C#C[C@H]1CC[C@@H](C2=NC3(CCN(S(=O)(=O)CCc4ccc(NC(C)=O)cc4C)CC3)C(=O)N2)CC1` [Compound 1074, N-(4-{2-[2-(4-ethynyl-cyclohexyl)-4-oxo-1,3,8-triaza-spiro[4.5]dec-1-ene-8-sulfonyl]-ethyl}-3-methyl-phenyl)-acetamide] was tested, and the “cAMP production activity (%)” value was 66%.
